# Experimental data reported in BindingDB's records for doi:10.1021/acsmedchemlett.8b00054 (Shandong University, 2018).
# What was measured:
# [1] = system: HIV1 RES056 reverse transcriptase K103N/Y181C double mutant (virus infecting MT4 cells); assay: Inhibition of HIV1 RES056 reverse transcriptase K103N/Y181C double mutant infected in human MT4 cells assessed as protection against virus-induced cytotoxicity by MTT assay
# [2] = system: wild-type HIV1 3B reverse transcriptase (virus infecting MT4 cells); assay: Inhibition of wild-type HIV1 3B reverse transcriptase infected in human MT4 cells assessed as protection against virus-induced cytotoxicity by MTT assay
# [3] = Inhibition of HIV1 reverse transcriptase E138K mutant infected in human MT4 cells assessed as protection against virus-induced cytotoxicity by MTT assay
# [4] = Inhibition of HIV1 reverse transcriptase K103N mutant infected in human MT4 cells assessed as protection against virus-induced cytotoxicity by MTT assay
# [5] = Inhibition of HIV1 reverse transcriptase L100I mutant infected in human MT4 cells assessed as protection against virus-induced cytotoxicity by MTT assay
# [6] = Inhibition of HIV1 reverse transcriptase F227L/V106A double mutant infected in human MT4 cells assessed as protection against virus-induced cytotoxicity by MTT assay
# [7] = Inhibition of HIV1 reverse transcriptase Y181C mutant infected in human MT4 cells assessed as protection against virus-induced cytotoxicity by MTT assay
# [8] = Inhibition of HIV1 reverse transcriptase Y188L mutant infected in human MT4 cells assessed as protection against virus-induced cytotoxicity by MTT assay
SMILES,EC50 [1],EC50 [2],also measured
Cc1cc(C#Cc2ccccn2)cc(C)c1Oc1nc(NC2CCN(Cc3ccc(S(N)(=O)=O)cc3)CC2)nc2ccsc12,0.888 µM,0.009 µM,–
Cc1cc(C#N)cc(C)c1Oc1nc(NC2CCN(Cc3ccc(S(C)(=O)=O)cc3)CC2)nc2cc[nH]c12,0.116 µM,0.0059 µM,–
Cc1cc(C#N)cc(C)c1Oc1nc(NC2CCN(Cc3ccco3)CC2)nc2ccsc12,> 272 µM,0.0036 µM,EC50 [3]: 0.0088 µM
"Cc1cn([C@H]2C[C@H](N=[N+]=[N-])[C@@H](CO)O2)c(=O)[nH]c1=O [1-((2R,4S,5S)-4-Azido-5-hydroxymethyl-tetrahydro-furan-2-yl)-5-methyl-1H-pyrimidine-2,4-dione]",0.017 µM,0.007 µM,–
Cc1cc(/C=C/C#N)cc(C)c1Nc1nc(NC2CCN(Cc3ccc(S(N)(=O)=O)cc3)CC2)nc2ccsc12,0.005 µM,0.0012 µM,–
Cc1cc(C#N)cc(C)c1Oc1nc(NC2CCN(Cc3cn(S(C)(=O)=O)cn3)CC2)nc2ccsc12,2.7 µM,0.0057 µM,EC50 [3]: 0.013 µM; EC50 [4]: 0.0045 µM
Cc1cc(C#N)cc(C)c1Oc1nc(NC2CCN(Cc3n[nH]c(=O)n3C)CC2)nc2ccsc12,17.1 µM,0.014 µM,–
Cc1cc(C#N)cc(C)c1Oc1nc(NC2CCN(Cc3ccc(C(N)=O)cc3)CC2)nc2ccn(S(=O)(=O)c3ccccc3)c12,2.29 µM,0.017 µM,–
Cc1cc(C#N)cc(C)c1Oc1nc(Nc2ccc(C#N)cc2)nc(N)c1Br,0.034 µM,0.004 µM,–
Cc1cc(C#Cc2ccncc2)cc(C)c1Oc1nc(NC2CCN(Cc3ccc(S(N)(=O)=O)cc3)CC2)nc2ccsc12,0.223 µM,0.034 µM,–
Cc1ccnc2c1NC(=O)c1cccnc1N2C1CC1 [BI-RG-587],> 15 µM,0.124 µM,–
Cc1cc(C#N)cc(C)c1Oc1nc(NC2CCN(Cc3ccc(S(N)(=O)=O)cc3)CC2)nc2ccn(S(=O)(=O)c3ccccc3)c12,0.11 µM,0.0089 µM,–
Cc1cc(C#N)cc(C)c1Oc1nc(NC2CCN(Cc3c[nH]cn3)CC2)nc2ccsc12,1.17 µM,0.0055 µM,EC50 [3]: 0.012 µM; EC50 [4]: 0.006 µM
Cc1cc(C#N)cc(C)c1Oc1nc(NC2CCN(Cc3ccc(N4CCCC4)cc3)CC2)nc2ccsc12,> 4.36 µM,0.033 µM,–
Cc1cc(C#Cc2cccnc2)cc(C)c1Oc1nc(NC2CCN(Cc3ccc(S(N)(=O)=O)cc3)CC2)nc2ccsc12,0.153 µM,0.041 µM,–
Cc1cc(C#N)cc(C)c1Oc1nc(NC2CCN(Cc3ccc(C(N)=O)cc3)CC2)nc2cc[nH]c12,0.113 µM,0.0057 µM,–
Cc1cc(C#N)cc(C)c1Oc1nc(NC2CCN(Cc3cc(=O)[nH]c(=O)[nH]3)CC2)nc2ccsc12,8.97 µM,0.0072 µM,EC50 [3]: 0.007 µM; EC50 [4]: 0.0061 µM
Cc1cc(C#N)cc(C)c1Oc1nc(NC2CCN(Cc3ccc(S(C)(=O)=O)cc3)CC2)nc2ccn(S(=O)(=O)c3ccccc3)c12,0.187 µM,0.031 µM,–
Cc1cc(C#N)cc(C)c1Oc1nc(NC2CCN(Cc3ccc(S(N)(=O)=O)cc3)CC2)nc2ccn(COCc3ccccc3)c12,0.484 µM,0.0095 µM,–
Cc1cc(C#N)cc(C)c1Oc1nc(NC2CCN(Cc3ccc(S(C)(=O)=O)cc3)CC2)nc2ccn(COCc3ccccc3)c12,0.547 µM,0.026 µM,–
Cc1cc(C#N)cc(C)c1Oc1nc(NC2CCN(Cc3ccc(S(N)(=O)=O)cc3)CC2)nc2cc[nH]c12,0.085 µM,0.0024 µM,EC50 [3]: 0.004 µM; EC50 [4]: 0.001 µM; EC50 [5]: 0.0042 µM; EC50 [6]: 0.018 µM; EC50 [7]: 0.0048 µM; EC50 [8]: 0.0072 µM
Cc1cc(C#N)cc(C)c1Nc1nc(NC2CCN(Cc3ccc(S(N)(=O)=O)cc3)CC2)nc2ccsc12,0.031 µM,0.0014 µM,–
Cc1cc(C#N)cc(C)c1Oc1nc(NC2CCN(Cc3ccc(C(N)=O)cc3)CC2)nc2ccn(COCc3ccccc3)c12,0.567 µM,0.036 µM,–
